From patent US20230277602A1, “COMBINATION THERAPY FOR TREATING OR PREVENTING CANCER” (4D Pharma Research Limited, priority 2018, published 2023)

Tested on: immature dendritic cells
Assay: Cytokine production in immature dendritic cells
Format: cell-based
Settings: MRX518 10^7/ml, LPS 100 ng/ml, compared to the negative control, FIGS. 4a-d
Method: A monocyte population was isolated from peripheral blood mononuclear cells (PBMCs). The monocyte cells were subsequently differentiated into immature dendritic cells. The immature dendritic cells were plated out at 200,000 cells/well and incubated with MRX518 at a final concentration of 10^7/ml, with the optional addition of LPS at a final concentration of 100 ng/ml. The negative control involved incubating the cells with RPMI media alone and positive controls incubated the cells with LPS at a final concentration of 100 ng/ml. The cytokine content of the cells was then analysed.

lipopolysaccharide [LPS] was tested, and the “level of IL-6” value was “increase” and the “level of TNF-α” value was “increase”.
